In one assay the test system is HepG-2 cells. The assay is described as follows: MTT cytotoxicity assay, HepG-2. The following applies: for IC50: MTT. It counts as cell-based, human. An excerpt: (§1) The human cervical cancer cell-line, HeLa (CCL-2.2; ATCC, Manassas, VA), HCT-116 (CCL-247; ATCC, Manassas, VA), A549 (CCL-185; ATCC, Manassas, VA), HepG-2 (HB-8065; ATCC, Manassas, VA) and WRL-68 (CL-48; ATCC, Manassas, VA), were obtained from American Type Culture Collection (ATCC). HeLa, A549, HepG2 and WRL68 cells were maintained in Dulbecco’s Modified Eagle Medium (DMEM, Life Technologies, Inc, Rockville, MD). HCT-116 was obtained in McCoy’s 5a Medium Modified (Life Technologies, Inc, Rockville, MD) supplemented with 10 % fetal bovine serum and 1 % penicillin/streptomycin. Cells were incubated at 37 °C in a humidified cell culture 5 % CO2 incubator. Cells were passaged until reaching 70-80-% confluency for experimental purposes.
(§2) Cytotoxicity of MBIC was estimated by MTT assay. Briefly, 1 × 10^4 cells/well were seeded in a 96-well plate and incubated at 37 °C in 5 % CO2. After 24 h, cells were treated with different concentrations (0.02, 0.04, 0.1, 0.2, 0.4, 0.8, 1.5, 3, 6, 12, 25, 50 μM) of MBIC. 0.01 % DMSO was used as vehicle control. Cells were incubated for 24 and 48 h at 37 °C. Subsequently, 50 μl/well of 3-(4,5-dimethylthiazol-2-yl)-2,5-diphenyltetrazolium bromide (MTT, 2 mg/ml) was added and incubated for 2 h. After the incubation, the media was discarded and 100 μl DMSO was replaced into each well to dissolve the formazan crystal. The colorimetric assay was quantified at 570 nm wavelength using Chameleon V microplate reader (Hidex, Turku, Finland). The anti-proliferation activity of MBIC was expressed as an IC50 value. The percentage of cell viability was calculated as described previously.
On the technique in general: Tetrazolium dyes change colour on reduction, which living cells bring about.

A further assay deals with T1, tubulin (Sus scrofa, UniProt P02550+P02554).
T1 construct: purchased Cytoskeleton BK011P
T1 sequence (P02550 whole entry): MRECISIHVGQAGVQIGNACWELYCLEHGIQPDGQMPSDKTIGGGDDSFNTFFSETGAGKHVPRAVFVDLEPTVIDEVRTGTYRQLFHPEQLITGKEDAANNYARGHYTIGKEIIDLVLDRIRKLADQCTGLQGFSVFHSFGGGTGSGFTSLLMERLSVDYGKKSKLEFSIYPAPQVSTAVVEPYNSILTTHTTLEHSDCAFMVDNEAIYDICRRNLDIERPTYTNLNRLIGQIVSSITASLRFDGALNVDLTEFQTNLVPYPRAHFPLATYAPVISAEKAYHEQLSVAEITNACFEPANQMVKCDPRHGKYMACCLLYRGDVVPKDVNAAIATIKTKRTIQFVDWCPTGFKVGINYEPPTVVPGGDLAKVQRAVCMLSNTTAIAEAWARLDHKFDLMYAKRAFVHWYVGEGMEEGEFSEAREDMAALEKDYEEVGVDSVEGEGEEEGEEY
T1 sequence (P02554 whole entry): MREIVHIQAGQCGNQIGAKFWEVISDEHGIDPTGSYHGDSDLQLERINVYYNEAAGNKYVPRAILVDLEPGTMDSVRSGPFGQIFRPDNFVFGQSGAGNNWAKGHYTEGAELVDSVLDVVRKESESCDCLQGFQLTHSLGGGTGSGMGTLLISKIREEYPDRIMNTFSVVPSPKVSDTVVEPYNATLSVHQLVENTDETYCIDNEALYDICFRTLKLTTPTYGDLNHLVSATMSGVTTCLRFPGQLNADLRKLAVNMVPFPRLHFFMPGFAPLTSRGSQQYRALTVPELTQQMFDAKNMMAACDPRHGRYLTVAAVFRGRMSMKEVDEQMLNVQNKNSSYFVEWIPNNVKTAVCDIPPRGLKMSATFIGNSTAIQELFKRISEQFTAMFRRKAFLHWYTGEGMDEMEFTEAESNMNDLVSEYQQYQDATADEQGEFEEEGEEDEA
Kind of assay: Tubulin polymerization assay. Particulars: 10 μM drug, 3 mg/ml tubulin, 37 °C, 340 nm; untreated 12 mOD/min. It counts as biochemical. As to the method: To investigate the effect of MBIC on tubulin polymerization, a fluorescence-based tubulin polymerization assay kit (Cytoskeleton-Cat. # BK011P) was used according to the manufacturer’s protocol. Briefly, 200 μl of pure tubulin protein was re-suspended in 420 μl of ice cold Tubulin Polymerization Buffer (TPB) to give a final concentration of 3 mg/ml tubulin, supplemented with 80 mM PIPES, 2 mM MgCl2, 0.5 mM EGTA, 1 mM GTP, 20 % (v/v) glycerol. 100 μl of tubulin reaction mixture were added to each well in a 96-well plate containing the selected concentration of MBIC (10 μM). […] Samples were mixed well and the tubulin assembly was monitored by an increase in fluorescence emission at 340 nm in kinetic mode for 120 min at 37 °C using a plate reader (Infinite® 200 PRO—Tecan plate reader, USA).

In another assay the test system is A549 cells. The assay is described as follows: MTT cytotoxicity assay, A549. It counts as cell-based, human. Particulars: for IC50: MTT.
Source text: as §1, §2

A further assay has as its system WRL-68 cells. Kind of assay: MTT cytotoxicity assay, WRL-68 normal liver cells. The assay is classed as cell-based, human.
Source text: as §1, §2

Assay [1] relates to HeLa cells. Kind of assay: Drug combination assay (MTT, Chou-Talalay, CampuSyn). The assay is classed as cell-based. Particulars: Homo sapiens, 24 h, drug alone, read-out: (Dm)IC50 Drug 1 (conventional drug alone). As to the method:
In order to discover the synergistic effects of MBIC with conventional drugs briefly, cells were seeded in 1 × 10^4 cells/well and were incubated at 37 °C overnight. […] Also, the MBIC, combined with each of the selected conventional drugs in a 1:1 ratio, were diluted in concentration from 50 μM to 0.1 μM. Cell viability assay (MTT assay) was performed 24 h post-treatment and absorbance were measured in a microplate reader to find out the IC50 for each conventional drug alone and in combination with MBIC on HeLa cells. For this analysis, we used the commercial software package CampuSyn (Biosoft, Cambridge, United Kingdom; Ref.9). […] Furthermore, the software produced an automated isobologram and fraction affected-combination index (Fa-CI) plot.

Assay [2] concerns HeLa cells. Kind of assay: MTT cytotoxicity assay, HeLa. The following applies: for IC50: HeLa, MTT; for SI (Selectivity Index): IC50 WRL-68 / IC50 HeLa. It counts as cell-based, human.
Source text: as §1, §2

A further assay deals with HCT-116 cells. Kind of assay: MTT cytotoxicity assay, HCT-116. The following applies: for IC50: MTT. It counts as cell-based, human.
Source text: as §1, §2

Assay [3] deals with HeLa cells expressing EGFP-α-tubulin, EGFP-CENP-A and histone H2B-mCherry. The assay is described as follows: Live-cell imaging of mitotic spindle. Particulars: MBIC 10 μM, nocodazole 2 μM; imaged at 15 min intervals. It counts as cell-based, human. As to the method:
HeLa cells expressing EGFP-α-tubulin, EGFP-CENP-A and histone H2B-mCherry were grown in glass chambers (Thermo Scientific, USA). Thirty minutes before imaging, the medium was changed to pre-warmed Leibovitz’s L-15 medium (Life Technologies) supplemented with 20 % fetal bovine serum and 20 mM HEPES, pH 7.0. Recordings were made in a temperature-controlled incubator at 37 °C. Images were collected with an Olympus IX-71 inverted microscope (Olympus) controlled by DeltaVision softWoRx (Applied Precision) using a 20x 0.75 NA UPlan SApochromat objective lens (Olympus). Z-series of six sections in 3 μm increments were captured every 15 min. Image stacks were projected.

The mark [4] stands for this setting: Homo sapiens, HepG2, HepG-2, 24 hours.
[5] abbreviates: Homo sapiens, HepG2, HepG-2, 48 hours.
Where [6] appears, read: IC50 WRL-68 / IC50 HepG-2, 24 hours.
[7] abbreviates: IC50 WRL-68 / IC50 HepG-2, 48 hours.
The mark [8] stands for this setting: IC50 WRL-68 / IC50 A549, 24 hours.
Where [9] appears, read: IC50 WRL-68 / IC50 A549, 48 hours.
[10] abbreviates: Homo sapiens, HCT-116, 24 hours.
Setting [11] is: Homo sapiens, HCT-116, 48 hours.
The mark [12] stands for this setting: IC50 WRL-68 / IC50 HCT-116, 24 hours.
The mark [13] stands for this setting: IC50 WRL-68 / IC50 HCT-116, 48 hours.

The source of these data is paper PMC4815073, “Targeting of tubulin polymerization and induction of mitotic blockage by Methyl 2-(5-fluoro-2-hydroxyphenyl)-1H-benzo[d]imidazole-5-carboxylate (MBIC) in human cervical cancer HeLa cell” (Journal of Experimental & Clinical Cancer Research : CR, 2016).

One may read the IC50 as the concentration that gives 50% inhibition. On to `CC(=O)O[C@H]1C(=O)[C@@]2(C)[C@H]([C@H](OC(=O)c3ccccc3)[C@]3(O)C[C@H](OC(=O)[C@H](O)[C@@H](NC(=O)c4ccccc4)c4ccccc4)C(C)=C1C3(C)C)[C@]1(OC(C)=O)CO[C@@H]1C[C@@H]2O` [Paclitaxel], for which the IC50 in the assay on HepG-2 cells (setting [4]) is 2.81 ± 0.72 µM; with HepG-2 cells (setting [5]), 1.03 ± 0.07 µM; in the assay with A549 cells (Homo sapiens, A549, 24 hours), 2.83 ± 0.11 µM; with A549 cells (Homo sapiens, A549, 48 hours), 1.23 ± 0.09 µM; in the assay with WRL-68 cells (Homo sapiens, WRL68, 24 hours), 6.71 ± 0.2 µM; in the assay on WRL-68 cells (Homo sapiens, WRL68, 48 hours), 3.41 ± 0.8 µM. Further, the IC50 in the assay on HeLa cells [1] turned out to be 1.02 ± 0.6 µM; with HeLa cells [2] (Homo sapiens, 24 hours), 1.02 ± 0.01 µM; in the assay on HeLa cells [2] (Homo sapiens, 48 hours), 0.57 ± 0.03 µM; in the assay on HCT-116 cells (setting [10]) it was 3.09 ± 0.5 µM; with HCT-116 cells (setting [11]) it was 1.09 ± 0.4 µM. For the same compound, the “SI (Selectivity Index)” value with HepG-2 cells (setting [6]) worked out at 2.38; in the assay with HepG-2 cells (setting [7]) it was 3.31; in the assay on A549 cells (setting [8]) it was 2.37; with A549 cells (setting [9]), 2.77; in the assay with HeLa cells [2] (24 hours) it was 6.57; in the assay on HeLa cells [2] (48 hours) it was 5.98. The “SI (Selectivity Index)” value is reported as 2.17 in the assay on HCT-116 cells (setting [12]) and 3.12 in the assay with HCT-116 cells (setting [13]). Besides, on tubulin, the “Tubulin polymerization maximal velocity (Vmax)” value is listed as 33 mOD/min.

In the case of `N.N.[Cl][Pt][Cl]` [Cisplatin], the half-inhibitory concentration (IC50) was found to be 10.3 ± 0.5 µM with HepG-2 cells (HepG-2, 24 hours); 5.93 ± 0.2 µM in the assay on HepG-2 cells (HepG-2, 48 hours); 34 ± 0.9 µM with A549 cells (A549, 24 hours); 19.5 ± 1.4 µM in the assay with A549 cells (A549, 48 hours); 18.6 ± 1.4 µM in the assay on WRL-68 cells (24 hours); 10.6 ± 0.7 µM with WRL-68 cells (48 hours). For the same compound, the IC50 was found to be 15.07 ± 0.03 µM in the assay with HeLa cells [2] (24 hours); 9.02 ± 0.02 µM in the assay with HeLa cells [2] (48 hours); 7.22 ± 0.5 µM with HCT-116 cells (HCT-116, 24 hours); 4.12 ± 0.6 µM in the assay with HCT-116 cells (HCT-116, 48 hours). The “SI (Selectivity Index)” value in the assay with HepG-2 cells (setting [6]) was found to be 1.80; in the assay with HepG-2 cells (setting [7]), 1.78; in the assay with A549 cells (setting [8]), 0.54; in the assay on A549 cells (setting [9]) it was 0.54; in the assay with HeLa cells [2] (24 hours), 1.23; with HeLa cells [2] (48 hours), 1.17. For the same compound, the figures for the “SI (Selectivity Index)” value in the assay with HCT-116 cells (setting [12]) and with HCT-116 cells (setting [13]) were 2.57 and 2.56, respectively.

As for `COC(=O)Nc1nc2ccc(C(=O)c3cccs3)cc2[nH]1` [Nocodazole], the IC50 came out at 10.7 ± 0.5 µM in the assay with HepG-2 cells (setting [4]); 5.08 ± 0.3 µM in the assay with HepG-2 cells (setting [5]); 12.2 ± 0.2 µM with A549 cells (Homo sapiens, A549, 24 hours); 5.09 ± 0.5 µM in the assay on A549 cells (Homo sapiens, A549, 48 hours); 12.2 ± 0.9 µM with WRL-68 cells (Homo sapiens, WRL68, 24 hours); 7.56 ± 0.3 µM in the assay with WRL-68 cells (Homo sapiens, WRL68, 48 hours). Also, the IC50 came out at 3.08 ± 0.5 µM in the assay with HeLa cells [1]; 3.08 ± 0.02 µM in the assay on HeLa cells [2] (Homo sapiens, 24 hours); 2.22 ± 0.04 µM in the assay with HeLa cells [2] (Homo sapiens, 48 hours); 3.81 ± 0.6 µM in the assay on HCT-116 cells (setting [10]); 1.81 ± 0.3 µM in the assay on HCT-116 cells (setting [11]). Besides, the “SI (Selectivity Index)” value is 1.14 in the assay on HepG-2 cells (setting [6]); 1.48 in the assay with HepG-2 cells (setting [7]); 1.00 with A549 cells (setting [8]); 1.48 in the assay with A549 cells (setting [9]); 3.97 in the assay on HeLa cells [2] (24 hours); 3.40 with HeLa cells [2] (48 hours). Besides, the “SI (Selectivity Index)” value with HCT-116 cells (setting [12]) is 3.20; in the assay with HCT-116 cells (setting [13]), 4.17. On tubulin, the “Tubulin polymerization maximal velocity (Vmax)” value is reported as 3 mOD/min. Moreover, in assay [3], the “mitotic spindle formation in live-cell imaging” value is on record as “did not form the spindle”.

`COc1cccc2c1C(=O)c1c(O)c3c(c(O)c1C2=O)C[C@@](O)(C(=O)CO)C[C@@H]3O[C@H]1C[C@H](N)[C@H](O)[C@H](C)O1` [Doxorubicin]: the concentration for half-maximal inhibition (IC50) in the assay on HepG-2 cells (setting [4]) turned out to be 8.04 ± 0.8 µM; in the assay with HepG-2 cells (setting [5]) it was 3.94 ± 0.07 µM; in the assay with A549 cells (Homo sapiens, A549, 24 hours) it was 0.35 ± 0.07 µM; in the assay with A549 cells (Homo sapiens, A549, 48 hours) it was 0.09 ± 0.01 µM; in the assay on WRL-68 cells (Homo sapiens, WRL68, 24 hours) it was 3.56 ± 0.9 µM; with WRL-68 cells (Homo sapiens, WRL68, 48 hours) it was 1.68 ± 0.09 µM. In addition, the half-maximal inhibitory concentration (IC50) was found to be 0.46 ± 0.7 µM in the assay on HeLa cells [1]; 0.46 ± 0.04 µM with HeLa cells [2] (Homo sapiens, 24 hours); 0.29 ± 0.04 µM with HeLa cells [2] (Homo sapiens, 48 hours); 0.91 ± 0.2 µM in the assay with HCT-116 cells (setting [10]); 0.47 ± 0.3 µM in the assay on HCT-116 cells (setting [11]). The “SI (Selectivity Index)” value is 0.44 in the assay on HepG-2 cells (setting [6]); 0.42 in the assay on HepG-2 cells (setting [7]); 10.17 in the assay on A549 cells (setting [8]); 18.66 with A549 cells (setting [9]); 7.73 with HeLa cells [2] (24 hours); 5.79 in the assay on HeLa cells [2] (48 hours). Besides, the “SI (Selectivity Index)” value was 3.91 in the assay on HCT-116 cells (setting [12]) and 3.57 in the assay with HCT-116 cells (setting [13]).
